Measured values as given in PubChem BioAssay AID1963828 (Molecular Pharmacology Branch, DTP, NCI, 2024).

Test system: 991263-137-R1-J2-PDC complex spheroid viability
Assay: Anticancer human tumor 991263-137-R1-J2-PDC patient-derived colon adenocarcinoma cell line growth inhibition [POLQ]
Conditions: for IC50: curve of first compound; for viability, T/C: stronger effect = lower value
In short: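 PDC + HUVEC + MSC complex spheroids; POLQ inhibitors ± partner drugs; top conc. at/near clinical Cmax, else 10 microM (SN-38 1 microM), half-log dilutions; 37 degrees C, 5% CO2.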

[1] = second compound 0.0316 µM, first compound 0.0316 µM
[2] = second compound 0.0316 µM, first compound 0.1 µM
[3] = second compound 0.0316 µM, first compound 0.316 µM
[4] = second compound 0.0316 µM, first compound 1 µM
[5] = second compound 0.0316 µM, first compound 3.16 µM
[6] = second compound 0.0316 µM, first compound 10 µM
[7] = second compound 0.1 µM, first compound 0.0316 µM
[8] = second compound 0.1 µM, first compound 0.1 µM
[9] = second compound 0.1 µM, first compound 0.316 µM
[10] = second compound 0.1 µM, first compound 1 µM
[11] = second compound 0.1 µM, first compound 3.16 µM
[12] = second compound 0.1 µM, first compound 10 µM
[13] = second compound 0.316 µM, first compound 0.0316 µM
[14] = second compound 0.316 µM, first compound 0.1 µM
[15] = second compound 0.316 µM, first compound 0.316 µM
[16] = second compound 0.316 µM, first compound 1 µM
[17] = second compound 0.316 µM, first compound 3.16 µM
[18] = second compound 0.316 µM, first compound 10 µM
[19] = second compound 1 µM, first compound 0.0316 µM
[20] = second compound 1 µM, first compound 0.1 µM
[21] = second compound 1 µM, first compound 0.316 µM
[22] = second compound 1 µM, first compound 1 µM
[23] = second compound 1 µM, first compound 3.16 µM
[24] = second compound 1 µM, first compound 10 µM
[25] = second compound 3.16 µM, first compound 0.0316 µM
[26] = second compound 3.16 µM, first compound 0.1 µM
[27] = second compound 3.16 µM, first compound 0.316 µM
[28] = second compound 3.16 µM, first compound 1 µM
[29] = second compound 3.16 µM, first compound 3.16 µM
[30] = second compound 3.16 µM, first compound 10 µM
[31] = second compound 10 µM, first compound 0.0316 µM
[32] = second compound 10 µM, first compound 0.1 µM
[33] = second compound 10 µM, first compound 0.316 µM
[34] = second compound 10 µM, first compound 1 µM
[35] = second compound 10 µM, first compound 3.16 µM
[36] = second compound 10 µM, first compound 10 µM
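Further: spheroids exposed to compounds for 7 days before readout.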
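Wherever viability, T/C is given: 100% = DMSO vehicle control viability.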

## C#Cc1c(F)ccc2cc(O)cc(-c3ncc4c(N5CC6CCC(C5)N6)nc(OCC56CCCN5CC(F)C6)nc4c3F)c12 (stereo unspecified) + COC1C(OC(N)=O)C(O)C(Oc2ccc3c(O)c(NC(=O)c4ccc(O)c(CC=C(C)C)c4)c(=O)oc3c2C)OC1(C)C
Second compound 0.0316 µM
  IC50: > 10 µM
Second compound 0.1 µM
  IC50: > 10 µM
Second compound 0.316 µM
  IC50: > 10 µM
Second compound 1 µM
  IC50: > 10 µM
Second compound 3.16 µM
  IC50: > 10 µM
Second compound 10 µM
  IC50: > 10 µM
[1]
  viability, T/C: 103%
[2]
  viability, T/C: 107%
[3]
  viability, T/C: 105%
[4]
  viability, T/C: 109%
[5]
  viability, T/C: 108%
[6]
  viability, T/C: 95.1%
[7]
  viability, T/C: 103%
[8]
  viability, T/C: 106%
[9]
  viability, T/C: 99.4%
[10]
  viability, T/C: 88.2%
[11]
  viability, T/C: 116%
[12]
  viability, T/C: 104%
[13]
  viability, T/C: 98.9%
[14]
  viability, T/C: 120%
[15]
  viability, T/C: 118%
[16]
  viability, T/C: 91.5%
[17]
  viability, T/C: 114%
[18]
  viability, T/C: 92.7%
[19]
  viability, T/C: 95.4%
[20]
  viability, T/C: 113%
[21]
  viability, T/C: 112%
[22]
  viability, T/C: 107%
[23]
  viability, T/C: 117%
[24]
  viability, T/C: 90.6%
[25]
  viability, T/C: 104%
[26]
  viability, T/C: 123%
[27]
  viability, T/C: 122%
[28]
  viability, T/C: 121%
[29]
  viability, T/C: 109%
[30]
  viability, T/C: 104%
[31]
  viability, T/C: 102%
[32]
  viability, T/C: 102%
[33]
  viability, T/C: 102%
[34]
  viability, T/C: 110%
[35]
  viability, T/C: 102%
[36]
  viability, T/C: 91.6%

## O=C(c1cc(Cc2n[nH]c(=O)c3ccccc23)ccc1F)N1CCN(C(=O)C2CC2)CC1 + Cc1cccc(N(C)C(=O)C2C(O)CCN2c2nc(C)cc(C(F)(F)F)c2C#N)c1
Second compound 0.0316 µM
  IC50: > 10 µM
Second compound 0.1 µM
  IC50: > 10 µM
Second compound 0.316 µM
  IC50: > 10 µM
Second compound 1 µM
  IC50: > 10 µM
Second compound 3.16 µM
  IC50: > 10 µM
Second compound 10 µM
  IC50: > 10 µM
[1]
  viability, T/C: 105%
[2]
  viability, T/C: 99.1%
[3]
  viability, T/C: 92.4%
[4]
  viability, T/C: 105%
[5]
  viability, T/C: 79.5%
[6]
  viability, T/C: 79.3%
[7]
  viability, T/C: 101%
[8]
  viability, T/C: 104%
[9]
  viability, T/C: 93.2%
[10]
  viability, T/C: 84.4%
[11]
  viability, T/C: 87.1%
[12]
  viability, T/C: 99%
[13]
  viability, T/C: 92.5%
[14]
  viability, T/C: 118%
[15]
  viability, T/C: 96%
[16]
  viability, T/C: 99.3%
[17]
  viability, T/C: 90%
[18]
  viability, T/C: 72%
[19]
  viability, T/C: 90.2%
[20]
  viability, T/C: 91.3%
[21]
  viability, T/C: 91.5%
[22]
  viability, T/C: 111%
[23]
  viability, T/C: 107%
[24]
  viability, T/C: 91.4%
[25]
  viability, T/C: 80.8%
[26]
  viability, T/C: 95.3%
[27]
  viability, T/C: 92.8%
[28]
  viability, T/C: 80.4%
[29]
  viability, T/C: 108%
[30]
  viability, T/C: 95.8%
[31]
  viability, T/C: 96.5%
[32]
  viability, T/C: 101%
[33]
  viability, T/C: 86.1%
[34]
  viability, T/C: 100%
[35]
  viability, T/C: 106%
[36]
  viability, T/C: 90.4%

## C#Cc1c(F)ccc2cc(O)cc(-c3ncc4c(N5CC6CCC(C5)N6)nc(OCC56CCCN5CC(F)C6)nc4c3F)c12 (stereo unspecified) + Cc1cccc(N(C)C(=O)C2C(O)CCN2c2nc(C)cc(C(F)(F)F)c2C#N)c1
Second compound 0.0316 µM
  IC50: > 10 µM
Second compound 0.1 µM
  IC50: > 10 µM
Second compound 0.316 µM
  IC50: > 10 µM
Second compound 1 µM
  IC50: > 10 µM
Second compound 3.16 µM
  IC50: > 10 µM
Second compound 10 µM
  IC50: > 10 µM
[1]
  viability, T/C: 110%
[2]
  viability, T/C: 95.5%
[3]
  viability, T/C: 104%
[4]
  viability, T/C: 104%
[5]
  viability, T/C: 92.9%
[6]
  viability, T/C: 100%
[7]
  viability, T/C: 97.8%
[8]
  viability, T/C: 104%
[9]
  viability, T/C: 109%
[10]
  viability, T/C: 76.1%
[11]
  viability, T/C: 106%
[12]
  viability, T/C: 92.2%
[13]
  viability, T/C: 101%
[14]
  viability, T/C: 106%
[15]
  viability, T/C: 89.8%
[16]
  viability, T/C: 93.5%
[17]
  viability, T/C: 97.7%
[18]
  viability, T/C: 95.8%
[19]
  viability, T/C: 93.8%
[20]
  viability, T/C: 95%
[21]
  viability, T/C: 103%
[22]
  viability, T/C: 95.6%
[23]
  viability, T/C: 99.9%
[24]
  viability, T/C: 98.2%
[25]
  viability, T/C: 95%
[26]
  viability, T/C: 117%
[27]
  viability, T/C: 121%
[28]
  viability, T/C: 93.2%
[29]
  viability, T/C: 98.7%
[30]
  viability, T/C: 105%
[31]
  viability, T/C: 94.8%
[32]
  viability, T/C: 102%
[33]
  viability, T/C: 106%
[34]
  viability, T/C: 90.1%
[35]
  viability, T/C: 106%
[36]
  viability, T/C: 79.7%
